Where “and” joins values, the source holds several entries; their conditions need not be identical. Equal entries are not always repeated.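 Where inhibition never reached the appropriate level, the endpoint shown equals the highest concentration tested. Otherwise, values were interpolated linearly from a five-concentration, 48-hour dose response in 96-well plates. Abbreviation: GI50, concentration required for 50% inhibition of growth. At the TGI there is no net growth.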 Peptide text beside a SMILES is read from it. * marks the point of attachment. X34 = O=C(c1ccc(-c2ccc(Cl)cc2Cl)o1)*

Consider 26 compounds from PubChem BioAssay (NCI).

Test systems include HOP-18 NSCLC; KM20L2 colon; SNB-78 CNS; M19-MEL melanoma; LXFL 529 NSCLC; HCC-2998 colon; DMS 273 small cell lung; XF 498 CNS; MCF7 breast; MDA-MB-231 breast; ACHN renal; NCI-H460 lung; SN12K1 renal; P388 leukemia; DLD-1 colon.
Common to all, as to assay: NCI tumour cell line growth inhibition, 48 h

For `N#Cc1ccc([N+](=O)[O-])cc1NC(N)=S`, the TGI is over 100 µM in the experiment with HOP-18 NSCLC; over 100 µM in the experiment on KM20L2 colon; over 100 µM in the experiment with SNB-78 CNS; over 100 µM in the experiment on M19-MEL melanoma; 32.6 µM with LXFL 529 NSCLC; over 100 µM in the experiment with HCC-2998 colon. Moreover, the TGI in the experiment with DMS 273 small cell lung and in the experiment on XF 498 CNS was over 100 µM each time.

For `CC(=O)OCC1=CC2OC(=O)C3=COC(OC4OC(CO)C(O)C(O)C4O)C1C32` (stereo unspecified), the TGI in the experiment on MCF7 breast, with MDA-MB-231 breast, with ACHN renal and in the experiment with HCC-2998 colon was over 100 µM in each case.

Regarding `O=C1/C(=C/C=C/c2ccccc2)N=C(c2ccccc2)N1c1ccc(S(=O)(=O)Nc2nccs2)cc1`, the TGI with MCF7 breast was over 100 µM; in the experiment with NCI-H460 lung it was over 100 µM; in the experiment with ACHN renal it was 34.5 µM.

Turning to `O=c1oc2cc(O)ccc2c2oc3cc(O)ccc3c12`, the TGI with MCF7 breast was 122 µM; in the experiment on HOP-18 NSCLC, over 125 µM; in the experiment with KM20L2 colon, 123 µM; in the experiment on SNB-78 CNS it was over 86.3 µM; with NCI-H460 lung, over 113 µM; with M19-MEL melanoma it was over 125 µM. In addition, the TGI in the experiment with SN12K1 renal is over 112 µM; in the experiment with HCC-2998 colon, over 118 µM; in the experiment on P388 leukemia, over 125 µM; with DLD-1 colon, over 125 µM; in the experiment with DMS 273 small cell lung it was over 121 µM; in the experiment with XF 498 CNS, over 19.8 µM.

In the case of `CC1(O)C2(c3ccccc3)CCC[N+]1(C)CC2` (stereo unspecified), the TGI in the experiment on MCF7 breast, in the experiment on MDA-MB-231 breast, with NCI-H460 lung and with HCC-2998 colon was over 100 µM throughout.

For `CC(=O)OCCCCN1C(=O)CSc2ccccc21`, the TGI in the experiment on MCF7 breast, in the experiment with NCI-H460 lung and in the experiment with ACHN renal was over 100 µM throughout.

`CC[C@@H]1CSC(/C=C/C2OC3OC(C)(C)OC3C3OC(C)(C)OC23)=N1` (stereo partly specified): the TGI came out at 16.8 µM with MCF7 breast; 25.7 µM in the experiment on MDA-MB-231 breast; 61.2 µM with NCI-H460 lung; 21.2 µM in the experiment with ACHN renal; 12.7 µM in the experiment on HCC-2998 colon.

On to `CC(C)CNCCc1ccccn1`, for which the TGI in the experiment on MCF7 breast, with MDA-MB-231 breast, in the experiment with NCI-H460 lung, with ACHN renal and in the experiment on HCC-2998 colon was over 100 µM throughout.

As to `C=CCn1c(=O)c(Br)nn(CCOCP(=O)(OCC)OCC)c1=O`, the TGI with MCF7 breast, in the experiment with MDA-MB-231 breast, with NCI-H460 lung, with ACHN renal and with HCC-2998 colon was over 100 µM throughout.

Regarding `CN1c2c(nc(N)[nH]c2=O)NCC1CCNc1ccc(C(=O)NC(CCC(=O)O)C(=O)O)cc1` (stereo unspecified), the TGI turned out to be 2030 µM in the experiment on MCF7 breast; 2950 µM in the experiment with HOP-18 NSCLC; 3050 µM in the experiment with MDA-MB-231 breast; 2280 µM in the experiment with KM20L2 colon; 2660 µM in the experiment with SNB-78 CNS; 1570 µM with NCI-H460 lung. In addition, the TGI with ACHN renal worked out at 2000 µM; in the experiment on M19-MEL melanoma, 778 µM; with SN12K1 renal it was 1810 µM; in the experiment with HCC-2998 colon, 2080 µM; in the experiment on P388 leukemia, 651 µM; in the experiment with DLD-1 colon it was 2350 µM. The TGI came out at 1560 µM in the experiment with DMS 273 small cell lung and 2150 µM in the experiment on XF 498 CNS.

As for `CN(C)c1ccc(C2CC(=O)CC(c3ccc(N(C)C)cc3)C23C(=O)NC(=S)NC3=O)cc1` (stereo unspecified), the TGI in the experiment on MCF7 breast, in the experiment on MDA-MB-231 breast, in the experiment with NCI-H460 lung, in the experiment on ACHN renal and in the experiment with HCC-2998 colon was over 100 µM in each case.

In the case of `COc1ccc(C(=O)c2nc3ccccc3nc2N2CCN(c3ccccc3)CC2)cc1OC`, the TGI in the experiment on MCF7 breast, in the experiment on NCI-H460 lung, in the experiment with ACHN renal and in the experiment with HCC-2998 colon was over 100 µM throughout.

Take `Nc1nc(SCCNC(=O)CCc2ccc(O)c(I)c2)nc2c1ncn2C1OC(CO)C(O)C1O` (stereo unspecified): the TGI with KM20L2 colon, with SNB-78 CNS, in the experiment with NCI-H460 lung, in the experiment on ACHN renal, in the experiment with M19-MEL melanoma and in the experiment with LXFL 529 NSCLC was over 100 µM in each case. In addition, the TGI in the experiment on HCC-2998 colon, in the experiment on DLD-1 colon, with DMS 273 small cell lung and in the experiment with XF 498 CNS was over 100 µM in each case.

For `COc1cc(NC(C)=O)ccc1C(=O)N/N=C/c1ccco1`, the TGI in the experiment on MCF7 breast and in the experiment with ACHN renal was over 100 µM throughout.

Take `CCOc1ccccc1Nc1ccc(N)cc1S(=O)(=O)O`: the TGI in the experiment on MDA-MB-231 breast, in the experiment with NCI-H460 lung, in the experiment on ACHN renal and in the experiment on HCC-2998 colon was over 100 µM throughout.

Turning to `COc1ccc(C(=O)CCN(C)C)c2ccccc12`, the TGI is 33.2 µM in the experiment on MCF7 breast; 35.6 µM with MDA-MB-231 breast; over 100 µM with NCI-H460 lung; 34 µM in the experiment on ACHN renal; 36 µM in the experiment with HCC-2998 colon.

Take `CC[C@@]1(O)C[C@H](OC2CC(N(C)C)C(OC3CC(O)C(OC4CCC(=O)C(C)O4)C(C)O3)C(C)O2)c2c(cc3c(c2O)C(=O)c2c(O)cccc2C3=O)C1C(=O)OC` (stereo partly specified): the TGI in the experiment on HOP-18 NSCLC was determined as 1.85 µM; with MDA-MB-231 breast, 0.058 µM; in the experiment with KM20L2 colon it was 4.64 µM; with NCI-H460 lung, 1.42 µM; with ACHN renal, 2.15 µM; with M19-MEL melanoma, 0.799 µM. Moreover, the TGI is 1.68 µM in the experiment on LXFL 529 NSCLC; 0.598 µM and 1.88 µM with HCC-2998 colon; 5.46 µM with DLD-1 colon; 0.294 µM with XF 498 CNS. For the same compound, in the experiment on XF 498 CNS, the GI50 was 0.0025 µM.

For the compound `CC1=C(SCCO)C(=O)c2ccccc2C1=O`, the TGI in the experiment on MCF7 breast was 12.6 µM; with MDA-MB-231 breast, 27.4 µM; in the experiment on NCI-H460 lung, 26.8 µM; in the experiment on ACHN renal, 13 µM; with HCC-2998 colon it was 30.4 µM.

On to `CC(=O)OC12CC[N+]3(C)CCCCC3C1=Nc1ccccc12` (stereo unspecified), for which the TGI in the experiment with MCF7 breast, in the experiment with MDA-MB-231 breast, in the experiment on NCI-H460 lung and in the experiment with ACHN renal was over 100 µM throughout.

As for `[C-]#[N+]C(=C\c1ccc(O)cc1)/C(=C/c1ccc(O)cc1)[N+]#[C-]`, the TGI was over 36.7 µM in the experiment on MCF7 breast; 6.71 µM in the experiment on MDA-MB-231 breast; over 28.6 µM with NCI-H460 lung; over 100 µM in the experiment on ACHN renal; over 50.6 µM with HCC-2998 colon.

On to `O=C1CCCCN1`, for which the TGI with MCF7 breast, in the experiment on HOP-18 NSCLC, in the experiment on KM20L2 colon, in the experiment on SNB-78 CNS, in the experiment with NCI-H460 lung and in the experiment on M19-MEL melanoma was over 1120 µM throughout. In addition, the TGI in the experiment with SN12K1 renal was over 1120 µM; with HCC-2998 colon it was over 1120 µM; in the experiment on P388 leukemia it was over 707 µM; in the experiment on DLD-1 colon, over 1120 µM; with DMS 273 small cell lung, over 1120 µM; with XF 498 CNS, over 112 µM.

With `COc1nc2ccc(CNc3ccc(C(=O)NC(CCC(=O)O)C(=O)O)cc3)cc2nc1OC` (stereo unspecified), the TGI in the experiment on MCF7 breast, in the experiment with MDA-MB-231 breast, in the experiment on NCI-H460 lung, in the experiment on ACHN renal and in the experiment on HCC-2998 colon was over 100 µM in each case.

Turning to `CCCCC(=O)c1c(O)ccc2c(C)cc(=O)oc12`, the TGI in the experiment on MCF7 breast, in the experiment on MDA-MB-231 breast, in the experiment on NCI-H460 lung, with ACHN renal and in the experiment with HCC-2998 colon was over 100 µM throughout.

In the case of `COC(=O)C(CC(C)C)NC(=O)C(Cc1ccccc1)NC(=O)C1CCCN1C(=O)C(CO)NC(=O)c1ccc(-c2ccc(Cl)cc2Cl)o1` (stereo unspecified) (X34-SPFL-OMe; configuration not given here), the TGI with MCF7 breast is over 100 µM; in the experiment with MDA-MB-231 breast, 32.3 µM; in the experiment with NCI-H460 lung it was 38.9 µM; in the experiment with ACHN renal, over 100 µM; in the experiment with HCC-2998 colon, 27.4 µM.

In the case of `O=S(=O)(O)c1cc(S(=O)(=O)O)c2c(N=Nc3ccc(S(=O)(=O)O)c4ccccc34)c(O)ccc2c1`, the TGI in the experiment with MDA-MB-231 breast and with ACHN renal was over 100 µM throughout.

On to `COc1cc2c3c(n(CCCn4cncn4)c(=O)c2cc1OC)-c1cc2c(cc1C3=O)OCO2`, for which the TGI is over 100 µM with MCF7 breast; over 100 µM with MDA-MB-231 breast; over 100 µM in the experiment with NCI-H460 lung; 2.56 µM in the experiment with ACHN renal; over 100 µM in the experiment on HCC-2998 colon. The GI50 was 80.9 µM in the experiment with MDA-MB-231 breast, under 0.01 µM in the experiment with NCI-H460 lung, under 0.01 µM with ACHN renal and 16.6 µM in the experiment on HCC-2998 colon.
